Laboratory results: patent US7662810B2, “2-arylmethylazetidine carbapenem derivatives and preparation thereof” (Korea Research Institute of Chemical Technology, priority 2004, dated 2010)

Columns and labels:
[1] = biological target: T1, Dihydropeptidase-1 (DHP-1) (Sus scrofa, UniProt P22412)
T1 sequence (P22412 17-384): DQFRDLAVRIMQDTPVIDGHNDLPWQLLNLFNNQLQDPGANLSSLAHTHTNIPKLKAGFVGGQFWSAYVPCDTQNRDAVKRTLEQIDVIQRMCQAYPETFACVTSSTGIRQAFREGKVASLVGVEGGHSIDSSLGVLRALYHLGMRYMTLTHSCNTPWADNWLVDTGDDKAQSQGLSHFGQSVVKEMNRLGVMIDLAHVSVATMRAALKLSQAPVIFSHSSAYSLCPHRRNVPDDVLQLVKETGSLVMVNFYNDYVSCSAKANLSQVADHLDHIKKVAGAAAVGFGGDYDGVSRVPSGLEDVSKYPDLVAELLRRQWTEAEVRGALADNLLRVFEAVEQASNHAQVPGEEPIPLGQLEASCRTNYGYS

[2] = system: Staphylococcus aureus 121E; assay: Measurement of Minimum Inhibitory Concentration (MIC), MRSA; type: cell-based; conditions: Staphylococcus aureus 121E
Experimental: (§1) The antibacterial activities of the compounds of the present invention prepared in the above Examples against Gram-positive and Gram-negative bacteria, MRSA and QRS were tested as follows.
(§2) Respective bacterial strains were inoculated into 3 ml of Fleisch extract broth (beef extract 1%, peptone 1%, NaCl 0.3%, Na2HPO4.12H2O 0.2%, pH 7.4-7.5. 10% horse serum was supplemented for Streptococcus pyogenes and S. facium) and cultured on a shaking incubator at 37° C. for 18 hours. About 10^4 CFU/spot of the cultured bacterial strains were inoculated onto Müller-Hinton agar plates containing serial double dilutions (final concentration of 0.002 to 100 μg/ml) of a test compound employing an automatic inoculator (Dynatech, USA), and incubated at 37° C. for 18 hours. When the incubation was completed, the minimum inhibitory concentration was determined. Meropenem (Yuhan corporation, Korea) and vancomycin (Cj Inco., Korea) were used as standard antibiotics, respectively.

[3] = system: Staphylococcus aureus 256E; assay: as above; type: cell-based; conditions: Staphylococcus aureus 256E
Experimental: as §1, §2

[4] = system: Staphylococcus aureus 208E; assay: as above; type: cell-based; conditions: Staphylococcus aureus 208E
Experimental: as §1, §2

[5] = system: Staphylococcus aureus 693E; assay: as above; type: cell-based; conditions: Staphylococcus aureus 693E
Experimental: as §1, §2

[6] = system: Staphylococcus aureus 697E; assay: as above; type: cell-based; conditions: Staphylococcus aureus 697E
Experimental: as §1, §2

[7] = system: Staphylococcus aureus 692E; assay: as above; type: cell-based; conditions: Staphylococcus aureus 692E
Experimental: as §1, §2

[8] = system: Staphylococcus aureus 694E; assay: as above; type: cell-based; conditions: Staphylococcus aureus 694E
Experimental: as §1, §2

[9] = system: Staphylococcus aureus 695E; assay: as above; type: cell-based; conditions: Staphylococcus aureus 695E
Experimental: as §1, §2

[10] = system: Staphylococcus aureus 88E; assay: as above; type: cell-based; conditions: Staphylococcus aureus 88E
Experimental: as §1, §2

[11] = system: Staphylococcus aureus 690E; assay: as above; type: cell-based; conditions: Staphylococcus aureus 690E
Experimental: as §1, §2

[12] = system: Staphylococcus aureus 241; assay: Measurement of Minimum Inhibitory Concentration (MIC), QRS; type: cell-based; conditions: QRS, Staphylococcus aureus 241
Experimental: as §1, §2

[13] = system: Staphylococcus aureus 293; assay: as above; type: cell-based; conditions: QRS, Staphylococcus aureus 293
Experimental: as §1, §2

[14] = system: Staphylococcus aureus 179; assay: as above; type: cell-based; conditions: QRS, Staphylococcus aureus 179
Experimental: as §1, §2

[15] = system: Staphylococcus epidermidis 291; assay: as above; type: cell-based; conditions: QRS, Staphylococcus epidermidis 291
Experimental: as §1, §2

[16] = system: Staphylococcus epidermidis 178; assay: as above; type: cell-based; conditions: QRS, Staphylococcus epidermidis 178
Experimental: as §1, §2

[17] = system: Salmonella typhimurium 179; assay: Measurement of Minimum Inhibitory Concentration (MIC); type: cell-based; conditions: Salmonella typhimurium 179
Experimental: as §1, §2

[18] = system: Staphylococcus pyogenes 77A; assay: as above; type: cell-based; conditions: Staphylococcus pyogenes 77A
Experimental: as §1, §2

[19] = system: Escherichia coli DC 2; assay: as above; type: cell-based
Experimental: as §1, §2

[20] = system: Klebsiella oxytoca 1082 E; assay: as above; type: cell-based
Experimental: as §1, §2

[21] = system: Staphylococcus faecium MD 8b; assay: as above; type: cell-based; conditions: Staphylococcus faecium MD 8b
Experimental: as §1, §2

[22] = system: Staphylococcus pyogenes 308A; assay: as above; type: cell-based; conditions: Staphylococcus pyogenes 308A
Experimental: as §1, §2

[23] = system: Staphylococcus aureus 285; assay: as above; type: cell-based
Experimental: as §1, §2

[24] = system: Enterobacter cloacae P 99; assay: as above; type: cell-based
Experimental: as §1, §2

[25] = system: Escherichia coli 1507 E; assay: as above; type: cell-based
Experimental: as §1, §2

[26] = system: Escherichia coli TEM; assay: as above; type: cell-based; conditions: Escherichia coli TEM
Experimental: as §1, §2

[27] = system: Staphylococcus aureus 503; assay: as above; type: cell-based
Experimental: as §1, §2

[28] = system: Escherichia coli 078; assay: as above; type: cell-based
Experimental: as §1, §2

[29] = system: Klebsiella aerogenes 1522 E; assay: as above; type: cell-based
Experimental: as §1, §2

[30] = system: Escherichia coli DC 0; assay: as above; type: cell-based
Experimental: as §1, §2

[31] = system: Enterobacter cloacae 1321 E; assay: as above; type: cell-based
Experimental: as §1, §2

| Structure (SMILES) | T1/2 (time when the concentration of the medicament become the half) [1] | MIC [2] [µg/mL] | MIC [3] [µg/mL] | MIC [4] [µg/mL] | MIC [5] [µg/mL] | MIC [6] [µg/mL] | MIC [7] [µg/mL] | MIC [8] [µg/mL] | MIC [9] [µg/mL] | MIC [10] [µg/mL] | MIC [11] [µg/mL] | MIC [12] [µg/mL] | MIC [13] [µg/mL] | MIC [14] [µg/mL] | MIC [15] [µg/mL] | MIC [16] [µg/mL] | MIC [17] [µg/mL] | MIC [18] [µg/mL] | MIC [19] [µg/mL] | MIC [20] [µg/mL] | other results |
| --- | --- | --- | --- | --- | --- | --- | --- | --- | --- | --- | --- | --- | --- | --- | --- | --- | --- | --- | --- | --- | --- |
| COc1ccccc1CN1CC(SC2=C(C(=O)[O-])N3C(=O)[C@H]([C@@H](C)O)[C@H]3[C@H]2C)C1.[K+] [Exam. 16, Potassium(1R,5S,6S)-2-[1-(2-methoxybenzyl)-azetidine-3-yl-thio]-6-[(1R)-1-hydroxylethyl]-1-methylcarbapen-2-em-3-carboxylate] | 200.91 | 0.025 | 0.025 | 0.025 | 1.563 | 0.025 | 0.049 | 0.049 | 0.049 | 0.025 | 0.195 | 0.025 | 0.098 | 0.049 | 0.391 | 0.195 | 0.098 | 0.002 | 0.049 | 0.098 | stability against hydrolysis by DHP-1 (in words) [1]: very stable; MIC [21]: 1.563 µg/mL; MIC [22]: 0.002 µg/mL; MIC [23]: 0.025 µg/mL; MIC [24]: 0.391 µg/mL; MIC [25]: 0.195 µg/mL; MIC [26]: 0.195 µg/mL; MIC [27]: 0.013 µg/mL; MIC [28]: 0.098 µg/mL; MIC [29]: 0.391 µg/mL; MIC [30]: 0.781 µg/mL; MIC [31]: 0.098 µg/mL |
| C[C@@H](O)[C@H]1C(=O)N2C(C(=O)[O-])=C(SC3CN([C@@H](C)c4ccccc4)C3)[C@H](C)[C@H]12.[K+] [Exam. 22, Potassium(1R,5S,6S)-2-{1-[(1S)-1-phenylethyl]-azetidine-3-yl-thio}-6-[(R)-1-hydroxylethyl]-1-methylcarbapen-2-em-3-carboxylate] | 65.99 | 0.049 | 0.025 | 0.025 | 3.125 | 0.025 | 0.025 | 0.049 | 0.098 | 0.025 | 0.195 | 0.049 | 0.195 | 0.049 | 0.391 | 0.195 | 0.049 | 0.002 | 0.025 | 0.098 | stability against hydrolysis by DHP-1 (in words) [1]: very stable; MIC [21]: 1.563 µg/mL; MIC [22]: 0.002 µg/mL; MIC [23]: 0.025 µg/mL; MIC [24]: 0.391 µg/mL; MIC [25]: 0.195 µg/mL; MIC [26]: 0.391 µg/mL; MIC [27]: 0.013 µg/mL; MIC [28]: 0.098 µg/mL; MIC [29]: 0.391 µg/mL; MIC [30]: 0.391 µg/mL; MIC [31]: 0.098 µg/mL |
| C[C@@H](O)[C@H]1C(=O)N2C(C(=O)[O-])=C(SC3CN(Cc4ccc(F)cc4)C3)[C@H](C)[C@H]12.[K+] [Exam. 19, Potassium(1R,5S,6S)-2-[1-(4-fluorobenzyl)-azetidine-3-yl-thio]-6-[(1R)-1-hydroxylethyl]-1-methylcarbapen-2-em-3-carboxylate] | 28.16 | 0.049 | 0.025 | 0.025 | 3.125 | 0.049 | 0.025 | 3.125 | 0.195 | 0.049 | 0.391 | 0.049 | 0.195 | 0.049 | 0.391 | 0.195 | 0.049 | 0.002 | 0.025 | 0.049 | MIC [21]: 1.563 µg/mL; MIC [22]: 0.002 µg/mL; MIC [23]: 0.025 µg/mL; MIC [24]: 0.098 µg/mL; MIC [25]: 0.049 µg/mL; MIC [26]: 0.049 µg/mL; MIC [27]: 0.013 µg/mL; MIC [28]: 0.025 µg/mL; MIC [29]: 0.098 µg/mL; MIC [30]: 0.098 µg/mL; MIC [31]: 0.049 µg/mL |
